In patent US10202349B2, “Asymmetric bis-acridines with antitumour activity and their uses” (POLITECHNIKA GDAŃSKA, priority 2015, dated 2019):

What was measured:
DU 145 = assay: Anti-neoplasmic activity against xenograft in hairless mice; format: in vivo; settings: series 1, i.p., single 2 mg/kg, total 6 mg/kg, day 35, *at least half of animals did not survive
Description: (§1) For this, we selected 26 bis-acridines, mainly on the basis of the cytotoxic activity. We performed 34 series of experiments evaluating the anti-neoplasmic activity on xenografts in hairless mice against eleven neoplasms of human origin from the determination of the cytotoxic activity of bis-acridines (table 4). The tumours were injected subcutaneously to hairless mice of 5-weeks, female Crl:Nu-Foxnlnu, at a rate of 5×10^6 cells per mouse. After attaining a tumour of about 100 mm^3 or 200 mm^3 in depending on the neoplasm and its take this was 8 or even 30 days, and began therapy. On the day therapy was initiated, we randomised the animals and divided them into groups. Test groups were from 6 to 8 animals, and controls had from 8 to 14 animals. Each compound was tested at three differentiated doses.
(§2) The preparations were administered intravenously (i.v.) twice weekly for 4 weeks (thrice weekly for rapidly growing neoplasms). In several series, we used intraperitoneally (i.p.) administration in the same scheme. […] The therapeutic efficacy of the tested formulations was evaluated by measuring tumour size (length and width measurements of the tumour on the basis of the calculated tumour volume). Tumours were measured twice weekly for a period of about 30 days for fast-growing neoplasms, as well as about 60 days for the slow-growing neoplasms. The tumour volume in the treated groups compared with the control group. On this basis, inhibition of tumour growth was calculated using the following formula: Tumour growth inhibition TGI [%]=100−(ΔVT/ΔVC×100) Where ΔVT—is mean the tumour volume in animals in the group treated at the given day of treatment, minus the mean tumour volume in animals at the date of commencement of therapy. ΔVC is mean tumour volume in animals in the control group on a given day of treatment minus the average tumour volume of animals on the date of commencement of therapy. The results of the tests of anti-neoplasmic activity conducted in xenografts of human-origin neoplasms in mice are shown in Table 5.
(§3) The result above was accepted only in the case that the dose administered in all animals or more than half of the animals that survived to the end of the experiment. In addition, the evaluation was the day that the administration of the preparation was already completed: for the fast-growing neoplasms (eg. HCT116) this was in the days from 15 to 26, while for slow-growing neoplasms (eg. Panc 1) on a day from 34 to 60. […] In addition, the maximum inhibition of neoplasms could be identified in the day, in which there were no factors that could change the value TGI value.
(§4) Such factors may include: a significant decrease in body weight, the appearance of observable toxaemia, excessive rate of tumour growth: tumours in excess of 2000 mm^3 and all animals alive on that day.

PC 3 = assay: as above; format: in vivo; settings: series 15, i.p., single 2 mg/kg, total 12 mg/kg, day 39
Description: as §1, §2, §3, §4

HCT 116 = assay: as above; format: in vivo; settings: series 9, i.v., single 1 mg/kg, total 5 mg/kg, day 16, *at least half of animals did not survive
Description: as §1, §2, §3, §4

HCT-116 = assay: Cytotoxic activity in vitro, SRB; format: cell-based, human
Description: (§5) Cytotoxic activity tests in-vitro. A measure of the cytotoxic activity of bis-acridines are the EC50 (concentration of studied compounds at which 50% inhibition of proliferation of tumorous is observed) of the evaluated compounds that inhibit the growth of 50% of cells in relation to a control. The cytotoxic activity of the compounds was determined using SRB, recommended by the US National Cancer Institute (USA). As the spectrum of 13 human origin neoplasms in bis-acridine screening studies, we used the following: HT 29 [CRC], HCT 116 [CRC], H 460 [lung cancer], MDA MB 231 [breast cancer], MCF-7 [breast cancer], UM UC3 [bladder cancer], PC 3 [prostate cancer], DU 145 [ prostate cancer], Panc-1 [pancreatic cancer], Mia Pa Ca 2 [pancreatic cancer], BXPC 3 [pancreatic cancer], AsPC1 [pancreatic cancer], Capan-2 [pancreatic cancer]. […] The DU-145 results were substantially a basis for selecting compounds and neoplasms for screening. The next neoplasms most sensitive to the cytotoxic activity of bis-acridines was the CRC HCT-116, as well as breast cancer MBA-MB-231. […] The cytotoxic activity of the remaining bis-acridines is significant or high (EC50 in the range from 1 to 0.04 μM). […] Panc-1, MiaPaCa-2 and Capan-2 are more sensitive, whereas for AsPC-1 and BxPC-3 this activity is at least an order of magnitude smaller.

MCF-7 = assay: Cytotoxic activity in vitro, SRB; format: cell-based, human
Description: as §5

HT-29 = assay: Cytotoxic activity in vitro, SRB; format: cell-based, human
Description: as §5

PANC-1 = assay: Cytotoxic activity in vitro, SRB; format: cell-based, human
Description: as §5

PC-3 = assay: Cytotoxic activity in vitro, SRB; format: cell-based, human
Description: as §5

MiaPaCa-2 = assay: Cytotoxic activity in vitro, SRB; format: cell-based, human
Description: as §5

AsPC-1 = assay: Cytotoxic activity in vitro, SRB; format: cell-based, human
Description: as §5

UM-UC-3 = assay: Cytotoxic activity in vitro, SRB; format: cell-based, human
Description: as §5

MDA-MB-231 = assay: Cytotoxic activity in vitro, SRB; format: cell-based, human
Description: as §5

H-460 = assay: Cytotoxic activity in vitro, SRB; format: cell-based, human
Description: as §5

DU-145 = assay: Cytotoxic activity in vitro, SRB; format: cell-based, human
Description: as §5

BXPC 3 = assay: Anti-neoplasmic activity against xenograft in hairless mice; format: in vivo
Description: as §1, §2, §3, §4

PANC 1 = assay: as above; format: in vivo
Description: as §1, §2, §3, §4

AsPC 1 = assay: as above; format: in vivo; settings: series 23, i.v., single 6 mg/kg, total 48 mg/kg, day 36, *at least half of animals did not survive
Description: as §1, §2, §3, §4

Capan-2 = assay: Cytotoxic activity in vitro, SRB; format: cell-based, human
Description: as §5

BxPC-3 = assay: Cytotoxic activity in vitro, SRB; format: cell-based, human
Description: as §5

Mia Pa Ca 2 = assay: Anti-neoplasmic activity against xenograft in hairless mice; format: in vivo; settings: series 28, i.v., single 5 mg/kg, total 28 mg/kg, day 33
Description: as §1, §2, §3, §4

| SMILES | EC50 (HCT-116) | EC50 (PANC-1) | EC50 (MiaPaCa-2) | EC50 (AsPC-1) | EC50 (MDA-MB-231) | EC50 (DU-145) | EC50 (Capan-2) | EC50 (BxPC-3) | other results |
| --- | --- | --- | --- | --- | --- | --- | --- | --- | --- |
| CN(CCCNc1c2ccccc2nc2cccc([N+](=O)[O-])c12)CCCNc1ccc([N+](=O)[O-])c2[nH]c3ccc(O)cc3c(=O)c12 [C-1906, 9-{N-[(7-hydroxy-4-nitro-9(10H)acridono-1-yl)aminopropyl]-N-methylaminopropylamino}-1′-nitroacridone] | 15 nM | 32 nM | 24 nM | 135 nM | 20 nM | 43 nM |  |  | TGI [%] [100 − (ΔVT/ΔVC × 100] (DU 145): 60* %; TGI [%] [100 − (ΔVT/ΔVC × 100] (PC 3): 52%; TGI [%] [100 − (ΔVT/ΔVC × 100] (HCT 116): 32* %; EC50 (MCF-7): 74 nM; EC50 (HT-29): 22 nM; EC50 (PC-3): 52 nM; EC50 (UM-UC-3): 14 nM; EC50 (H-460): 14 nM |
| COc1ccc2c(c1)c(=O)c1c(NCCCN3CCN(CCCNc4c5ccccc5nc5cccc([N+](=O)[O-])c45)CC3)ccc3ncn2c31 [C-2049, 1-[3-(8-methoxy-imidazo[4,5,1-de]-acridin-6-on-5-yl)aminopropyl]-4-[3′-(1′-nitroacridin-1-yl)-aminopropyl]piperazine] | 28 nM | 40 nM | 36 nM | 122 nM | 38 nM | 21 nM | 27 nM | 75 nM | TGI [%] [100 − (ΔVT/ΔVC × 100] (BXPC 3; series 21, i.v., single 6 mg/kg, total 40 mg/kg, day 34): 63%; TGI [%] [100 − (ΔVT/ΔVC × 100] (PANC 1; series 20, i.v., single 6 mg/kg, total 48 mg/kg, day 32): 63%; TGI [%] [100 − (ΔVT/ΔVC × 100] (PANC 1; series 27, i.v, single 2 mg/kg, total 16 mg/kg, day 47): 80%; TGI [%] [100 − (ΔVT/ΔVC × 100] (AsPC 1): 32* % |
| Cc1ccc([N+](=O)[O-])c2c(NCCCN(C)CCCNc3ccc4ncn5c6ccc(O)cc6c(=O)c3c45)c3ccccc3nc12 [C-2045, 9-{N-[(8-hydroxyimidazo[4,5,1-de]-acridin-6-on-5-yl)aminopropyl]-N-methylaminopropylamino}-4′-methyl-1′-nitroacridine] | 40 nM | 216 nM | 59 nM | 152 nM | 52 nM | 59 nM | 52 nM | 169 nM | TGI [%] [100 − (ΔVT/ΔVC × 100] (BXPC 3; series 25, i.p., single 10 mg/kg, total 80 mg/kg, day 32): 77%; TGI [%] [100 − (ΔVT/ΔVC × 100] (PANC 1; series 20, i.v., single 10 mg/kg, total 40 mg/kg, day 32): 67%; TGI [%] [100 − (ΔVT/ΔVC × 100] (PANC 1; series 24, i.v., single 2 mg/kg, total 16 mg/kg, day 44): 82%; TGI [%] [100 − (ΔVT/ΔVC × 100] (PANC 1; series 26, i.v., single 10 mg/kg, total 80 mg/kg, day 56): 64%; TGI [%] [100 − (ΔVT/ΔVC × 100] (PANC 1; series 29, i.v., single 5 mg/kg, total 25 mg/kg, day 36): 25%; TGI [%] [100 − (ΔVT/ΔVC × 100] (Mia Pa Ca 2): 55% |
